Measurements as given in the supplement of paper PMC10307832.

compound: CC[C@@H]1C(=O)N(C)c2cnc(Nc3ccc(C(=O)NC4CCN(C)CC4)cc3OC)nc2N1C1CCCC1 [BI-2536] + N=C(N)NC(=N)NCCc1ccccc1 [Phenformin] (partner 250 µM); experiment: relative viability (nuclei count vs DMSO), 5 days (fraction); higher = more cells survive; details: first compound 0.01 µM
Method in brief: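 Relative viability is defined as nuclei in treated wells over nuclei in vehicle wells. Duplicate plates were run and medians reported. Lung cancer cell lines in 1536-well plates were dosed by pin tool one day after seeding, with one drug or with a fixed anchor-drug dose plus five library-drug doses (not always all listed) in √10 steps, and nuclei were counted after 5 days.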

Cell Line | relative viability
NCI-H2405 | 0.378
HOP-62 | 0.7
HCC-44 | 0.184
SW 900 | 0.683
LU99A | 0.816
BEN | 0.262
HARA | 0.511
HCC-78 | 0.74
NCI-H322M | 0.76
LCLC-97TM1 | 0.43
NCI-H2009 | 0.468
A-427 | 0.35
NCI-H441 | 0.805
NCI-H661 | 0.263
NCI-H1734 | 0.393
NCI-H460 | 0.524

Cell Line | relative viability
SK-LU-1 | 0.577
NCI-H1395 | 0.439
201T | 0.38
NCI-H1915 | 0.351
HCC-827 | 0.421
LXF-289 | 0.467
NCI-H23 | 0.769
NCI-H647 | 0.423
CAL-12T | 0.543
NCI-H1651 | 0.296
EPLC-272H | 0.241
NCI-H2228 | 0.328
NCI-H1792 | 0.451
NCI-H1355 | 0.427
NCI-H3122 | 0.38

same assay, conditions: first compound 0.03162 µM

Cell Line | relative viability
NCI-H2405 | 0.377
HOP-62 | 0.654
HCC-44 | 0.242
SW 900 | 0.564
LU99A | 0.823
BEN | 0.249
HARA | 0.55
HCC-78 | 0.721
NCI-H322M | 0.725
LCLC-97TM1 | 0.432
NCI-H2009 | 0.406
A-427 | 0.273
NCI-H441 | 0.492
NCI-H661 | 0.224
NCI-H1734 | 0.24
NCI-H460 | 0.409

Cell Line | relative viability
NCI-H2347 | 0.28
SK-LU-1 | 0.321
NCI-H1395 | 0.444
201T | 0.431
NCI-H1915 | 0.328
HCC-827 | 0.377
LXF-289 | 0.488
NCI-H23 | 0.781
NCI-H647 | 0.349
CAL-12T | 0.422
NCI-H1651 | 0.197
EPLC-272H | 0.28
NCI-H2228 | 0.214
NCI-H1792 | 0.49
NCI-H1355 | 0.408
NCI-H3122 | 0.34

same assay, conditions: first compound 0.1 µM

Cell Line | relative viability
NCI-H2405 | 0.321
HOP-62 | 0.43
HCC-44 | 0.0815
SW 900 | 0.493
LU99A | 0.212
BEN | 0.207
HARA | 0.376
HCC-78 | 0.636
NCI-H322M | 0.497
LCLC-97TM1 | 0.366
NCI-H2009 | 0.233
A-427 | 0.151
NCI-H441 | 0.23
NCI-H661 | 0.216
NCI-H1734 | 0.159
NCI-H460 | 0.0506

Cell Line | relative viability
NCI-H2347 | 0.382
SK-LU-1 | 0.209
NCI-H1395 | 0.293
201T | 0.276
NCI-H1915 | 0.12
HCC-827 | 0.43
LXF-289 | 0.159
NCI-H23 | 0.415
NCI-H647 | 0.107
CAL-12T | 0.289
NCI-H1651 | 0.136
EPLC-272H | 0.105
NCI-H2228 | 0.129
NCI-H1792 | 0.301
NCI-H1355 | 0.219
NCI-H3122 | 0.137

same assay, conditions: first compound 0.3162 µM

Cell Line | relative viability
NCI-H2405 | 0.153
HOP-62 | 0.141
HCC-44 | 0.1
SW 900 | 0.106
LU99A | 0.197
BEN | 0.231
HARA | 0.049
HCC-78 | 0.315
NCI-H322M | 0.341
LCLC-97TM1 | 0.137
NCI-H2009 | 0.183
A-427 | 0.0945
NCI-H441 | 0.217
NCI-H661 | 0.198
NCI-H1734 | 0.151
NCI-H460 | 0.0146

Cell Line | relative viability
NCI-H2347 | 0.276
SK-LU-1 | 0.12
NCI-H1395 | 0.279
201T | 0.315
NCI-H1915 | 0.0657
HCC-827 | 0.241
LXF-289 | 0.0389
NCI-H23 | 0.115
NCI-H647 | 0.059
CAL-12T | 0.134
NCI-H1651 | 0.104
EPLC-272H | 0.109
NCI-H2228 | 0.106
NCI-H1792 | 0.0773
NCI-H1355 | 0.193
NCI-H3122 | 0.158

same assay, conditions: first compound 1 µM

Cell Line | relative viability
NCI-H2405 | 0.243
HOP-62 | 0.141
HCC-44 | 0.0914
SW 900 | 0.146
LU99A | 0.2
BEN | 0.186
HARA | 0.0462
HCC-78 | 0.197
NCI-H322M | 0.251
LCLC-97TM1 | 0.154
NCI-H2009 | 0.105
A-427 | 0.134
NCI-H441 | 0.228
NCI-H661 | 0.206
NCI-H1734 | 0.167
NCI-H460 | 0.0134

Cell Line | relative viability
NCI-H2347 | 0.211
SK-LU-1 | 0.151
NCI-H1395 | 0.316
201T | 0.23
NCI-H1915 | 0.0862
HCC-827 | 0.157
LXF-289 | 0.039
NCI-H23 | 0.122
NCI-H647 | 0.0765
CAL-12T | 0.115
NCI-H1651 | 0.102
EPLC-272H | 0.103
NCI-H2228 | 0.102
NCI-H1792 | 0.0991
NCI-H1355 | 0.196
NCI-H3122 | 0.127
